Measured values from patent US11813306B2, “Cyclic tetramer compounds as proprotein convertase subtilisin/kexin type 9 (PCSK9) inhibitors for the treatment of metabolic disorders” (NOVARTIS AG, priority 2018, dated 2023).
Structures can show the parent of a compound that is named as a salt.

Target: human PCSK9 (Homo sapiens, UniProt Q8NBP7)
Assay: PCSK9 ligand binding assay (TR-FRET): interference with binding of human PCSK9 to human LDLR
Details: for IC50: Human PCSK9 Alexa Fluor 647 / Human LDLR extracellular domain-Europium Kryptate; for Max % inhibition: efficacy (Amax), 100% = 1 uM unlabeled human PCSK9, 0% = DMSO
How it was run: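 Read-out was TR-FRET ratio (665 nm over 615 nm, 330 nm excitation) between Alexa Fluor 647-human PCSK9 (16 nM added) and Europium Kryptate-human LDLR ectodomain (4 nM added). Compound and PCSK9 were mixed 30 min before LDLR, then incubated 2 h. Inhibition was normalised to DMSO and unlabelled-PCSK9 controls, giving IC50 and Amax.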

human PCSK9, sequence (Q8NBP7 153-692): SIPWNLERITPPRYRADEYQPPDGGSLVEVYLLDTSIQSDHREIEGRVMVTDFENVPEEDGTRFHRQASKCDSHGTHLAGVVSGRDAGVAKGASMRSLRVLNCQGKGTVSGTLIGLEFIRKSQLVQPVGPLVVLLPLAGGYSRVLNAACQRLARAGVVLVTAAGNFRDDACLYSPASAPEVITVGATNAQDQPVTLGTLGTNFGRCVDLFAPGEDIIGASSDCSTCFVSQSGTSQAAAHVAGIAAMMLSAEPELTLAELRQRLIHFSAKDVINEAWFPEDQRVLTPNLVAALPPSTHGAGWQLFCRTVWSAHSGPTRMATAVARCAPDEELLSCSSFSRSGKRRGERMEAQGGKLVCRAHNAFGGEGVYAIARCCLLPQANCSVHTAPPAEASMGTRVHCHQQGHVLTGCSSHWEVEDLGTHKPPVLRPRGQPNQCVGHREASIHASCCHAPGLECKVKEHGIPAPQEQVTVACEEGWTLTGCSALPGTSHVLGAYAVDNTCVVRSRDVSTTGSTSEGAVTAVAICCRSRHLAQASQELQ
human PCSK9, sequence (Q8NBP7 31-152 partner limits assumed): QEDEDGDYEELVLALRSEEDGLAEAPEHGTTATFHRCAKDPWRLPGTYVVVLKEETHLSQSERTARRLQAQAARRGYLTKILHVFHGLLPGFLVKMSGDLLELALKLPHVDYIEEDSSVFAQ

IC50 | Max % inhibition | Structure (SMILES)
0.187 nM | 117.5% | C[C@H]1C(=O)N[C@@H](CO)C(=O)N(C)[C@@]2(Cc3ccc(Cl)cc3)CCCN(C2)C(=O)[C@H](CC(F)(F)F)CC(=O)N1Cc1ccc(Cl)cc1Oc1ccc(-c2cnc(CN(C)C)n2C)cc1 [Compound 20, (3S, 7S, 10S, 13R)-6-(4-chloro-2-(4-(2-((dimethylamino)methyl)-1-methyl-1H-imidazol-5-yl)phenoxy)benzyl)-13-(4-chlorobenzyl)-10-(hydroxymethyl)-7,12-dimethyl-3-(2,2,2-trifluoroethyl)-1,6,9,12-tetraazabicyclo[11.3.1]heptadecane-2,5,8,11-tetraone]
0.73 nM | 115.0% | Cc1cccc(C[C@@H]2CC(=O)N(Cc3c(F)cc(Cl)cc3Oc3ccc(-c4cnc(CN(C)C)n4C)cc3)[C@@H](C)C(=O)N[C@@H](CO)C(=O)N(C)[C@@]3(Cc4ccc(Cl)cc4)CCCN(C3)C2=O)n1 [Compound 170, (3R,7S,10S,13R)-6-(4-chloro-2-(4-(2-((dimethylamino)methyl)-1-methyl-1H-imidazol-5-yl)phenoxy)-6-fluorobenzyl)-13-(4-chlorobenzyl)-10-(hydroxymethyl)-7,12-dimethyl-3-((6-methylpyridin-2-yl)methyl)-1,6,9,12-tetraazabicyclo[11.3.1]heptadecane-2,5,8,11-tetraone]
94.3 nM | 96.9% | COC[C@H]1NC(=O)[C@H](C)N(Cc2ccc(Cl)cc2Oc2ccc(-c3cnc(CN(C)C)n3C)nc2)C(=O)C[C@@H](Cc2ccccc2)C(=O)N2CCC[C@@](Cc3ccc(Cl)cc3)(C2)NC1=O [Compound 122, (3R, 7S, 10R, 13R)-3-benzyl-6-(4-chloro-2-((6-(2-((dimethylamino)methyl)-1-methyl-1H-imidazol-5-yl)pyridin-3-yl)oxy)benzyl)-13-(4-chlorobenzyl)-10-(methoxymethyl)-7-methyl-1,6,9,12-tetraazabicyclo[11.3.1]heptadecane-2,5,8,11-tetraone]
52.7 nM | 108.8% | CNCc1ncc(-c2ccc(Oc3cc(Cl)cc(F)c3CN3C(=O)C[C@@H](CC(F)(F)F)C(=O)N4CCC[C@@](Cc5ccc(Cl)cc5)(C4)N(C)C(=O)[C@H](CO)NC(=O)[C@@H]3C)cc2)n1C [Compound 177, (3S,7S,10S,13R)-6-(4-chloro-2-fluoro-6-(4-(1-methyl-2-((methylamino)methyl)-1H-imidazol-5-yl)phenoxy)benzyl)-13-(4-chlorobenzyl)-10-(hydroxymethyl)-7,12-dimethyl-3-(2,2,2-trifluoroethyl)-1,6,9,12-tetraazabicyclo[11.3.1]heptadecane-2,5,8,11-tetraone trifluoroacetate]
0.152 nM | 112.8% | COC[C@@H]1NC(=O)[C@H](C)N(Cc2ccc(Cl)cc2Oc2ccc(-c3cnc(CN(C)C)n3C)nc2)C(=O)C[C@@H](CC(F)(F)F)C(=O)N2CCC[C@@](Cc3ccc(Cl)cc3)(C2)N(C)C1=O [Compound 12, (3S, 7S, 10S, 13R)-6-(4-chloro-2-((6-(2-((dimethylamino)methyl)-1-methyl-1H-imidazol-5-yl)pyridin-3-yl)oxy)benzyl)-13-(4-chlorobenzyl)-10-(methoxymethyl)-7,12-dimethyl-3-(2,2,2-trifluoroethyl)-1,6,9,12-tetraazabicyclo[11.3.1]heptadecane-2,5,8,11-tetraone]
1.03 nM | 107.8% | COC[C@@H]1NC(=O)[C@H](C)N(Cc2c(F)cc(Cl)cc2Oc2ccc(-c3cnc(CN(C)C)n3C)nc2)C(=O)C[C@@H](C2CC(F)(F)C2)C(=O)N2CCC[C@@](Cc3ccc(Cl)cc3)(C2)N(C)C1=O [Compound 171]
